{"source": "paper PMC3100590", "about": "(Journal of medicinal chemistry, 2011)", "key": {"dopamine D1 receptors": {"target": "dopamine D1 receptors (Homo sapiens, UniProt P21728)", "sequence (P21728 whole entry)": "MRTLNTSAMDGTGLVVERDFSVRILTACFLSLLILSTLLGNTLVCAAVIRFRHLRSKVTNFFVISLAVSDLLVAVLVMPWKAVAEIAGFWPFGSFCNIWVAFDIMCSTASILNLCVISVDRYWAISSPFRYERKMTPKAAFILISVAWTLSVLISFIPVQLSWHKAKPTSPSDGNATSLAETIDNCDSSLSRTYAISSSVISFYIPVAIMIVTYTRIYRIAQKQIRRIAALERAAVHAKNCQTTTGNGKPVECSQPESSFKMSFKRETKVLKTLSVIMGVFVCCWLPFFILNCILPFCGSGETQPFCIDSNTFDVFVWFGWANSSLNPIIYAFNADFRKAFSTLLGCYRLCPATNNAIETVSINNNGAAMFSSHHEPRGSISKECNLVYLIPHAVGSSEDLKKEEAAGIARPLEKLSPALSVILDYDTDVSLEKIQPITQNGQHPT", "assay": "Dopamine D1 receptor binding", "details": "data not shown"}, "[1]": {"target": "T1, human D3 dopamine receptor (D3R) (Homo sapiens, UniProt P35462)", "T1 sequence (P35462 whole entry)": "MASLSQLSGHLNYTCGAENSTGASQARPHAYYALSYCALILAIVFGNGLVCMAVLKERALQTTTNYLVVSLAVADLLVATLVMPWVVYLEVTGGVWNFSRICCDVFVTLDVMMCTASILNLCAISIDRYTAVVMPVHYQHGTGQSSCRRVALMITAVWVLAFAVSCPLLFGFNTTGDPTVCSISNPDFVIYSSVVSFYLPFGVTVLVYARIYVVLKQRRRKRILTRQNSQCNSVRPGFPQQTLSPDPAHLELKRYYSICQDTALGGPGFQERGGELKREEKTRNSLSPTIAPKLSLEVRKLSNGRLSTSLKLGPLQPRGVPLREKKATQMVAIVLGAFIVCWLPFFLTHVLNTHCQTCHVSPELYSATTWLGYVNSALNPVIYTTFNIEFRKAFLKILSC", "type": "binding", "details": "for decrease of D3R binding affinity on replacing the amide by the amine linker: amine analogue vs corresponding amide (13b vs 19; 15b vs 8j); for D2/D3: ratio of Ki values"}, "hD3 (D3R)": {"target": "hD3 (D3R) (Homo sapiens, UniProt P35462)", "sequence (P35462 whole entry)": "as above", "assay": "Quinpirole-induced mitogenesis assay in hD3-transfected CHOp cells", "type": "cell-based"}, "[2]": {"target": "human D2L dopamine receptor (D2R) (Homo sapiens, UniProt P14416)", "sequence (P14416 whole entry)": "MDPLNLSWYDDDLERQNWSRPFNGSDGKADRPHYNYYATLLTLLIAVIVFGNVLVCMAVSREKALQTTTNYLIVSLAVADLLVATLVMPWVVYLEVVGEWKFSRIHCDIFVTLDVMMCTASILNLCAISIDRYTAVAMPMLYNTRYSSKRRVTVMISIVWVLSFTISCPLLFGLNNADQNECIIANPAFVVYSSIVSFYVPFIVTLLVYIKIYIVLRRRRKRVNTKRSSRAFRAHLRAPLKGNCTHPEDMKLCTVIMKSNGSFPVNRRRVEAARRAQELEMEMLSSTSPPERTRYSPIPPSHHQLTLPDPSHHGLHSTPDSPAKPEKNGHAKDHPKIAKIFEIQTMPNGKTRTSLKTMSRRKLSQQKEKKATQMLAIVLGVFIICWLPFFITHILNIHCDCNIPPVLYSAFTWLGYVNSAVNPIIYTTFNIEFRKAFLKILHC", "type": "binding", "details": "for Ki: read-out: D2R Ki ± S.E.M., Table 2, HEK 293 hD2LR, 125I-IABN"}, "[3]": {"target": "T1, human D3 dopamine receptor (D3R)", "details": "Table 2; previously reported, ref [6]; cited from earlier work"}}, "note": "Where two headings read alike, the source gives them in different places."}
{"molecule": "O=C(NCCC(F)CN1CCN(c2cccc(Cl)c2Cl)CC1)c1cc2ccccc2o1", "note": "(centres unmarked) [Compound 8d, N-(4-(4-(2,3-Dichlorophenyl)piperazin-1-yl)-3-fluorobutyl)benzofuran-2-carboxamide]", "values": [{"measurement": "binding at dopamine D1 receptors", "setting": "dopamine D1 receptors", "value": "selectivity over D1"}]}
{"molecule": "O=C(NCCC(F)CN1CCN(c2cccc(Cl)c2Cl)CC1)c1cc2ccccc2[nH]1", "note": "(centres unmarked) [Compound 8h, N-(4-(4-(2,3-Dichlorophenyl)piperazin-1-yl)-3-fluorobutyl)-1H-indole-2-carboxamide]", "values": [{"measurement": "D3R-selectivity over D2R", "setting": "[1]", "value": "> 130", "unit": "fold"}]}
{"molecule": "COc1ccccc1N1CCN(CC(F)CCNC(=O)c2ccc3c(c2)Cc2ccccc2-3)CC1", "note": "(centres unmarked) [Compound 8i, N-(3-Fluoro-4-(4-(2-methoxyphenyl)piperazin-1-yl)butyl)-9H-fluorene-2-carboxamide]", "values": [{"measurement": "binding at dopamine D1 receptors", "setting": "dopamine D1 receptors", "value": "selectivity over D1"}]}
{"molecule": "O=C(NCCC(F)CN1CCN(c2cccc(Cl)c2Cl)CC1)c1ccc2c(c1)Cc1ccccc1-2", "note": "(centres unmarked) [Compound 8j, N-(4-(4-(2,3-Dichlorophenyl)piperazin-1-yl)-3-fluorobutyl)-9H-fluorene-2-carboxamide]", "values": [{"measurement": "D3R-selectivity over D2R", "setting": "[1]", "value": "> 1000", "unit": "fold"}, {"measurement": "binding at dopamine D1 receptors", "setting": "dopamine D1 receptors", "value": "selectivity over D1"}]}
{"molecule": "COc1ccccc1N1CCN(CC(F)CCNC(=O)c2cc3ccccc3s2)CC1", "note": "(centres unmarked) [Compound 8k, N-(3-Fluoro-4-(4-(2-methoxyphenyl)piperazin-1-yl)butyl)benzo[b]thiophene-2-carboxamide]", "values": [{"measurement": "D3R-selectivity over D2R", "setting": "[1]", "value": "> 60", "unit": "fold"}]}
{"molecule": "O=C(NCCC(F)CN1CCN(c2cccc(Cl)c2Cl)CC1)c1cc2ccccc2s1", "note": "(centres unmarked) [Compound 8l, N-(4-(4-(2,3-Dichlorophenyl)piperazin-1-yl)-3-fluorobutyl)benzo[b]thiophene-2-carboxamide]", "values": [{"measurement": "D3R-selectivity over D2R", "setting": "[1]", "value": "> 130", "unit": "fold"}]}
{"molecule": "COc1ccc2[nH]c(C(=O)NCCC(F)CN3CCN(c4ccccc4OC)CC3)cc2c1", "note": "(centres unmarked) [Compound 8m, N-(3-Fluoro-4-(4-(2-methoxyphenyl)piperazin-1-yl)butyl)-5-methoxy-1H-indole-2-carboxamide]", "values": [{"measurement": "D3R-selectivity over D2R", "setting": "[1]", "value": "> 60", "unit": "fold"}]}
{"molecule": "COc1ccc2[nH]c(C(=O)NCCC(F)CN3CCN(c4cccc(Cl)c4Cl)CC3)cc2c1", "note": "(centres unmarked) [Compound 8n, N-(4-(4-(2,3-Dichlorophenyl)piperazin-1-yl)-3-fluorobutyl)-5-methoxy-1H-indole-2-carboxamide]", "values": [{"measurement": "D3R-selectivity over D2R", "setting": "[1]", "value": "> 130", "unit": "fold"}, {"measurement": "EC50", "setting": "hD3 (D3R)", "value": 4.9, "unit": "nM"}, {"measurement": "functional profile in the D3R mitogenesis assay", "setting": "hD3 (D3R)", "value": "more potent partial agonist than an antagonist"}, {"measurement": "D3 mitogenesis % stimulation", "setting": "hD3 (D3R); agonist mode, value in parentheses", "value": 14.9, "unit": "%"}]}
{"molecule": "CN(CCC(F)CN1CCN(c2cccc(Cl)c2Cl)CC1)Cc1ccc2c(c1)Cc1ccccc1-2", "note": "(centres unmarked) [Compound 15b, N-((9H-Fluoren-2-yl)methyl)-4-(4-(2,3-dichlorophenyl)piperazin-1-yl)-3-fluoro-N-methylbutan-1-amine]", "values": [{"measurement": "D2R binding affinity increased on replacing the amide by the amine linker", "setting": "[2]; 15b vs amide 8j", "value": "~ 2 fold"}, {"measurement": "decrease of D3R binding affinity on replacing the amide by the amine linker", "setting": "[1]", "value": 150, "unit": "fold"}]}
{"molecule": "COc1ccccc1N1CCN(CCCCNC(=O)c2ccc3c(c2)Cc2ccccc2-3)CC1", "note": "[Compound 18, N-(4-(4-(2-methoxyphenyl)piperazin-1-yl)butyl)-9H-fluorene-2-carboxamide]", "values": [{"measurement": "D2/D3", "setting": "[3]", "value": 185}]}
{"molecule": "N-(Benzo[b]thiophen-2-ylmethyl)-4-(4-(2,3-dichlorophenyl)piperazin-1-yl)-N-propylbutan-1-amine [Compound 13b]", "values": [{"measurement": "D2R binding affinity reduced on replacing the amide by the amine linker", "setting": "[2]; 13b vs amide 19", "value": 2.5, "unit": "fold"}, {"measurement": "Ki", "setting": "[2]", "value": "162 ± 1.2", "unit": "nM"}, {"measurement": "D3R-selectivity over D2R", "setting": "[1]", "value": 2, "unit": "fold"}, {"measurement": "D2/D3", "setting": "[1]; Table 2", "value": 2}, {"measurement": "decrease of D3R binding affinity on replacing the amide by the amine linker", "setting": "[1]", "value": 126, "unit": "fold"}]}
{"molecule": "N-(Benzo[b]thiophen-2-ylmethyl)-4-(4-(2-methoxyphenyl)piperazin-1-yl)-N-propylbutan-1-amine [Compound 13a]", "values": [{"measurement": "Ki", "setting": "[2]", "value": "69.9 ± 7.3", "unit": "nM"}, {"measurement": "D2/D3", "setting": "[1]; Table 2", "value": 1}, {"measurement": "Ki", "setting": "[1]; read-out: D3R Ki ± S.E.M., Table 2, HEK 293 hD3R, 125I-IABN", "value": "67.9 ± 2.4", "unit": "nM"}]}
